Experiment [1] relates to Gram (+) specie Bacillius subtilis. Briefly: Drug elution and zone of inhibition study (disk susceptibility, M02-A11). The experiment is classed as cell-based, Bacillus subtilis. Here is the method: (§1) After preparation, the samples were then cut into disk-sized plastics that were applied to the surface of Mueller-Hinton agar dishes that had been already inoculated with either Gram (+) specie Bacillius subtilis or the Gram (−) specie Escherichia coli at a concentration of 1-5×10^8 cells/mL. After application, the plates were then incubated for five days 30° C., during which the zones of inhibition were measured every 24 hours to determine the change of diameter of the inhibition zone size over time. Samples were run in triplicate (n=3) for each plastic type-additive combination (as well as the LDPE plastic control samples) in order to ensure precision.
(§2) To compare the ability of plastics to elute drug and to determine the effect of the addition of LDPE into plastics, statistical analyses were performed by fitting a regression model.

The test system of another experiment is bacteria. The note with it: cited from earlier work.
Experiment [2] concerns Gram (−) specie Escherichia coli. As to the kind of experiment: Drug elution and zone of inhibition study (disk susceptibility, M02-A11). The experiment is classed as cell-based. As for the experimental part: as §1, §2
[3] abbreviates: plastics with 15% of the additive, range over plastic types.
Where [4] appears, read: plastics with the additive imbedded.

Regarding `O=C([O-])c1ccccc1.[Na+]` [sodium benzoate], the “zone of inhibition at decreased amount of food preservative (in words)” value in experiment [1] (10% and 5% additive in the plastic) is on record as “unable to produce a zone of inhibition”.
Regarding `OCC(O)CO` [glycerol], in the experiment on bacteria, the “concentration required for bacteriocidial properties” value was “at least 28%”.
On to `O=NO` [sodium nitrite], for which the “inhibition zone after 5 days” value in experiment [2] (setting [3]) and in experiment [1] (setting [3]) was 0 mm each time. The “zones of inhibition on inoculated petri dishes (in words)” value in experiment [2] (setting [4]) and in experiment [1] (setting [4]) was “did not generate any zones of inhibition” throughout.
